Source: patent publication US20230076527A1, “TREATMENT OF PAROXYSMAL NOCTURNAL HEMOGLOBINURIA” (Apellis Pharmaceuticals, Inc., priority 2020, published 2023)

Columns and labels:
[1] = system: patients with PNH previously treated with eculizumab; experiment: Matching-adjusted indirect comparison of pegcetacoplan (PEGASUS) versus ravulizumab (302 study); format: in vivo, human; conditions: PEGASUS Week 16 vs 302 study Week 26, after matching
Text: Both studies share similar eligibility criteria. However, PEGASUS also required patients to have hemoglobin <10.5 g/dL and absolute reticulocyte count >1.0x the upper limit of normal; these criteria were not applicable in the 302 study. To adjust for cross-study differences in baseline characteristics, propensity score weighting was utilized to balance baseline demographic and clinical characteristics. Outcomes assessed included: transfusion avoidance, total number of units of packed red blood cells (PRBCs) transfused, hemoglobin stabilization, and change in Functional Assessment of Chronic Illness Therapy (FACIT)-Fatigue score. Outcomes were assessed from PEGASUS at Week 16 and from the 302 study at Week 26. Unadjusted mean and least squares mean change in FACIT-Fatigue score were compared for PEGASUS and the 302 study, respectively. Weighted Wald tests and 95% confidence intervals (CIs) were computed for comparisons of categorical and continuous outcomes (i.e., chi square and z tests, respectively).

patients with PNH = experiment: PEGASUS quality of life assessments (LASA, EORTC QLQ-C30); format: in vivo, human
Procedure: QoL assessments were Linear Analog Scale Assessment (LASA) and the European Organisation for Research and Treatment of Cancer Quality of Life Questionnaire-Core 30 Scale (EORTC QLQ-C30) scores. Change from baseline (CFB) to week 16 was analyzed using a mixed model for repeated measures. The LASA consists of 3 sections asking respondents to rate their perceived level of functioning and contains specific domains for activity level, ability to carry out daily activities, and overall QoL. Each section of the LASA is scored from low of 0 to high of 100 and asks patients to rate different aspects of their life over the past week; section 1 asks patients to rate their energy level, section 2 their ability to do daily activities, section 3 their overall quality of life. Scores for the 3 individual components of the scale and the combined score were included in the analysis. The EORTC contains 30 questions comprising 5 functional scale scores and individual items; it asks patients to answer 28 questions on a scale of 1 (“not at all”) to 4 (“very much”) that generally focus on the past week of their life. An additional 2 questions are rated on a scale of 1 (“very poor”) to 7 (“excellent”) for overall health and quality of life over the past week.

[2] = change from baseline at week 16, ITT
[3] = change from baseline at week 16, ITT, listed as Pegcetacoplan
[4] = week 16, ITT, negative = improvement

Substance: Poly(oxy-1,2-ethanediyl), α-hydro-ω-hydroxy-, 15,15ʹ -diester with N-acetyl-L-isoleucyl-L-cysteinyl-L-valyl-1-methyl-L-tryptophyl-L-glutaminyl-L-α-aspartyl-L-tryptophylglycyl-L-alanyl-L-histidyl-L-arginyl-L-cysteinyl-L-threonyl-2-[2-(2-aminoethoxy)ethoxy]acetyl-N^6-carboxy-L-lysinamide cyclic (2-->12)-(disulfide) [pegcetacoplan]
- comparative effectiveness versus ravulizumab (MAIC, anchored on eculizumab) [1]: improvement in transfusion avoidance, hemoglobin stabilization, and fatigue, and a reduction in the total number of units of PRBCs transfused
- Appetite loss, Difference (95% CI) in LS mean, pegcetacoplan vs eculizumab (patients with PNH; [2]): -8.0 (-23.2, 7.3)
- Cognitive functioning, Difference (95% CI) in LS mean, pegcetacoplan vs eculizumab (patients with PNH; [2]): 9.6 (-4.5, 23.6)
- Constipation, Difference (95% CI) in LS mean, pegcetacoplan vs eculizumab (patients with PNH; [2]): 1.8 (-15.7, 19.3)
- Diarrhea, Difference (95% CI) in LS mean, pegcetacoplan vs eculizumab (patients with PNH; [2]): -1.4 (-19.3, 16.5)
- Dyspnea, Difference (95% CI) in LS mean, pegcetacoplan vs eculizumab (patients with PNH; [2]): -14.6
- Emotional functioning, Difference (95% CI) in LS mean, pegcetacoplan vs eculizumab (patients with PNH; [2]): 4.1 (-11.6, 19.8)
- Fatigue symptom scale, Difference (95% CI) in LS mean, pegcetacoplan vs eculizumab (patients with PNH; [2]): -20.7
- Financial difficulties, Difference (95% CI) in LS mean, pegcetacoplan vs eculizumab (patients with PNH; [2]): -7.4 (-21.8, 7.0)
- Global Health Status/QoL, Difference (95% CI) in LS mean, pegcetacoplan vs eculizumab (patients with PNH; [2]): 18.6 (0.1, 37.1)
- Insomnia, Difference (95% CI) in LS mean, pegcetacoplan vs eculizumab (patients with PNH; [2]): 0.3 (-15.7, 16.3)
- Nausea and vomiting, Difference (95% CI) in LS mean, pegcetacoplan vs eculizumab (patients with PNH; [2]): -0.0 (-8.4, 8.4)
- Pain, Difference (95% CI) in LS mean, pegcetacoplan vs eculizumab (patients with PNH; [2]): -2.8 (-20.4, 14.9)
- Physical functioning, Difference (95% CI) in LS mean, pegcetacoplan vs eculizumab (patients with PNH; [2]): 12.9 (4.9, 20.9)
- Role functioning, Difference (95% CI) in LS mean, pegcetacoplan vs eculizumab (patients with PNH; [2]): 24.4 (8.8, 40.0)
- Social functioning, Difference (95% CI) in LS mean, pegcetacoplan vs eculizumab (patients with PNH; [2]): 11.3 (-2.4, 24.9)
- LASA score, Difference (95% CI) in LS mean, pegcetacoplan vs eculizumab (patients with PNH; change from baseline at week 16, ITT, censored for transfusion): 59.10
- LASA score, Difference (95% CI) in LS mean, pegcetacoplan vs eculizumab (patients with PNH; change from baseline at week 16, ITT, censored for transfusion, listed as Pegcetacoplan): 59.1 (16.9, 101.3)
- Dyspnea, Difference (95% CI) in LS mean, pegcetacoplan vs eculizumab (patients with PNH; [3]): -14.6 (-29.9, 0.8)
- Fatigue symptom scale, Difference (95% CI) in LS mean, pegcetacoplan vs eculizumab (patients with PNH; [3]): -20.7 (-35.3, -6.2)
- EORTC QLQ-C30 Cognitive functioning, LS mean (SE) change from baseline (patients with PNH; week 16, ITT): 5.8 (3.3)
- EORTC QLQ-C30 Emotional functioning, LS mean (SE) change from baseline (patients with PNH; week 16, ITT): 8.0 (3.4)
- EORTC QLQ-C30 Global Health Status/QoL, LS mean (SE) change from baseline (patients with PNH; week 16, ITT): 15.9 (3.6)
- EORTC QLQ-C30 Physical functioning, LS mean (SE) change from baseline (patients with PNH; week 16, ITT): 16.9 (2.1)
- EORTC QLQ-C30 Role functioning, LS mean (SE) change from baseline (patients with PNH; week 16, ITT): 15.4 (3.9)
- EORTC QLQ-C30 Social functioning, LS mean (SE) change from baseline (patients with PNH; week 16, ITT): 15.1 (2.9)
- LASA score, LS mean (SE) change from baseline (patients with PNH; week 16, ITT, censored for transfusion): 49.4 (10.2)
- EORTC QLQ-C30 Appetite loss, LS mean (SE) change from baseline (patients with PNH; [4]): -3.8 (3.4)
- EORTC QLQ-C30 Constipation, LS mean (SE) change from baseline (patients with PNH; [4]): 3.0 (3.2)
- EORTC QLQ-C30 Diarrhea, LS mean (SE) change from baseline (patients with PNH; [4]): 0.3 (3.7)
- EORTC QLQ-C30 Dyspnea, LS mean (SE) change from baseline (patients with PNH; [4]): -20.1 (3.5)
- EORTC QLQ-C30 Fatigue symptom scale, LS mean (SE) change from baseline (patients with PNH; [4]): -22.9 (3.3)
- EORTC QLQ-C30 Financial difficulties, LS mean (SE) change from baseline (patients with PNH; [4]): -6.8 (3.9)
- EORTC QLQ-C30 Insomnia, LS mean (SE) change from baseline (patients with PNH; [4]): -9.2 (4.0)
- EORTC QLQ-C30 Nausea and vomiting, LS mean (SE) change from baseline (patients with PNH; [4]): -0.3 (1.6)
- EORTC QLQ-C30 Pain, LS mean (SE) change from baseline (patients with PNH; [4]): -0.7 (4.3)
